Assay results: ChEMBL document CHEMBL1201862, “PubChem BioAssay data set” (2004)
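Method: 48-hour compound exposure of cells in 96-well plates, five concentrations, linear interpolation of endpoints. GI50 = concentration required for 50% inhibition of growth.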 Active and inactive are the calls of the source. Cut-off read from the data, not from the text of the source: active = GI50 up to about 1.1 µM and inactive = higher.

Legend:
Test in all cases: inhibition of tumour cell growth, NCI panel, 48 h
A498 = tested on: A498
A549 = tested on: A549
CAKI-1 = tested on: CAKI-1
DLD-1 = tested on: DLD-1
HCT-116 = tested on: HCT-116
HCT-15 = tested on: HCT-15
HOP-92 = tested on: HOP-92
MCF7 = tested on: MCF7
NCI-H460 = tested on: NCI-H460
NCI-H522 = tested on: NCI-H522
OVCAR-3 = tested on: OVCAR-3
OVCAR-4 = tested on: OVCAR-4
RXF 393 = tested on: RXF 393
SK-MEL-28 = tested on: SK-MEL-28
SN12C = tested on: SN12C
SNB-75 = tested on: SNB-75
SW-620 = tested on: SW-620
UACC-257 = tested on: UACC-257
UO-31 = tested on: UO-31
NCI/ADR-RES = tested on: NCI/ADR-RES

Question: CCN(CC)CCC(=O)N1C/C(=C/c2ccccc2)C(=O)/C(=C\c2ccccc2)C1 was tested. Which GI50 (A498) did it give?
Answer: The GI50 was 3.96 µM (inactive).

Question: And the GI50 (A549)?
Answer: The GI50 was 4.76 µM (inactive).

Question: And the GI50 (CAKI-1)?
Answer: Its GI50 is 2.3 µM (inactive).

Question: What about the GI50 (DLD-1) of the same molecule?
Answer: Its GI50 is 1.29 µM (inactive).

Question: What about the GI50 (HCT-116) of the same molecule?
Answer: The GI50 was 0.321 µM (active).

Question: What about the GI50 (HCT-15) of the same molecule?
Answer: Its GI50 is 1.24 µM.

Question: And the GI50 (HOP-92)?
Answer: Its GI50 is 4.52 µM (inactive).

Question: And the GI50 (MCF7)?
Answer: The GI50 was 0.372 µM (active).

Question: And the GI50 (NCI-H460)?
Answer: Its GI50 is 3.24 µM (inactive).

Question: And the GI50 (NCI-H522)?
Answer: The GI50 was 0.746 µM (active).

Question: And the GI50 (OVCAR-3)?
Answer: The GI50 was 3.06 µM (inactive).

Question: What about the GI50 (OVCAR-4) of the same molecule?
Answer: The GI50 was 2.17 µM (inactive).

Question: And the GI50 (RXF 393)?
Answer: Its GI50 is 1.51 µM (inactive).

Question: And the GI50 (SK-MEL-28)?
Answer: The GI50 was 1.82 µM (inactive).

Question: What about the GI50 (SN12C) of the same molecule?
Answer: Its GI50 is 1.3 µM (inactive).

Question: And the GI50 (SNB-75)?
Answer: The GI50 was 4.08 µM (inactive).

Question: What about the GI50 (SW-620) of the same molecule?
Answer: Its GI50 is 0.195 µM (active).

Question: What about the GI50 (UACC-257) of the same molecule?
Answer: The GI50 was 2.1 µM (inactive).

Question: And the GI50 (UO-31)?
Answer: The GI50 was 1.71 µM (inactive).

Question: How did the GI50 (A498) turn out when COC1=CC(=O)c2c(O)c3c(c(O)c2C1=O)C=C(C)OC3O (configuration not stated) was run?
Answer: Its GI50 is 2.12 µM (inactive).

Question: And the GI50 (A549)?
Answer: The GI50 was 1.42 µM (inactive).

Question: What about the GI50 (CAKI-1) of the same molecule?
Answer: The GI50 was 3.52 µM (inactive).

Question: What about the GI50 (DLD-1) of the same molecule?
Answer: The GI50 was 0.665 µM (active).

Question: What about the GI50 (HCT-116) of the same molecule?
Answer: The GI50 was 0.569 µM (active).

Question: And the GI50 (HCT-15)?
Answer: Its GI50 is 0.349 µM.

Question: And the GI50 (HOP-92)?
Answer: The GI50 was 6.84 µM (inactive).

Question: What about the GI50 (MCF7) of the same molecule?
Answer: Its GI50 is 0.39 µM (active).

Question: And the GI50 (NCI-H460)?
Answer: The GI50 was 1.35 µM (inactive).

Question: What about the GI50 (NCI-H522) of the same molecule?
Answer: The GI50 was 1.45 µM (inactive).

Question: What about the GI50 (NCI/ADR-RES) of the same molecule?
Answer: Its GI50 is 1.51 µM (inactive).

Question: What about the GI50 (OVCAR-3) of the same molecule?
Answer: Its GI50 is 1.03 µM (active).

Question: And the GI50 (OVCAR-4)?
Answer: Its GI50 is 1.92 µM (inactive).

Question: What about the GI50 (RXF 393) of the same molecule?
Answer: Its GI50 is 1.05 µM (active).

Question: What about the GI50 (SK-MEL-28) of the same molecule?
Answer: The GI50 was 1.27 µM (inactive).

Question: What about the GI50 (SN12C) of the same molecule?
Answer: Its GI50 is 0.877 µM (active).

Question: And the GI50 (SNB-75)?
Answer: Its GI50 is 1.57 µM (inactive).

Question: What about the GI50 (SW-620) of the same molecule?
Answer: Its GI50 is 0.828 µM (active).

Question: What about the GI50 (UACC-257) of the same molecule?
Answer: The GI50 was 0.24 µM (active).

Question: And the GI50 (UO-31)?
Answer: The GI50 was 4.04 µM (inactive).

Question: What does the source list for CC1=C(SC#N)S(=O)(=O)N(c2ccccc2)C(C)=C1SC#N?
Answer: GI50 (A498): 22.6 µM (inactive); GI50 (A549): 40.7 µM (inactive); GI50 (CAKI-1): 45.2 µM (inactive); GI50 (DLD-1): 33.3 µM (inactive); GI50 (HCT-116): 3.27 µM (inactive); GI50 (HCT-15): 46 µM; GI50 (HOP-92): 3.63 µM (inactive); GI50 (NCI-H460): 32.8 µM (inactive); GI50 (NCI-H522): 18 µM (inactive); GI50 (OVCAR-3): > 10 µM (inactive); GI50 (OVCAR-4): 33.3 µM (inactive); GI50 (RXF 393): 21.8 µM (inactive); GI50 (SK-MEL-28): 61.9 µM (inactive); GI50 (SN12C): 56.6 µM (inactive); GI50 (SNB-75): 27 µM (inactive); GI50 (SW-620): 41.8 µM (inactive); GI50 (UACC-257): 32 µM (inactive); GI50 (UO-31): 24.4 µM (inactive)

Question: For COc1ccc(/C=C\c2cc(OC)c(OC)c(OC)c2)cc1OC(=O)NCCN(C)C, which GI50 (A498) is on record?
Answer: The GI50 was 0.000269 µM (active).

Question: And the GI50 (A549)?
Answer: The GI50 was 0.00187 µM (active).

Question: And the GI50 (CAKI-1)?
Answer: Its GI50 is 0.0386 µM (active).

Question: And the GI50 (DLD-1)?
Answer: The GI50 was < 0.0001 µM (active).

Question: And the GI50 (HCT-116)?
Answer: Its GI50 is < 0.0001 µM (active).

Question: And the GI50 (HCT-15)?
Answer: The GI50 was 0.000132 µM.

Question: And the GI50 (HOP-92)?
Answer: Its GI50 is < 0.0001 µM (active).

Question: What about the GI50 (MCF7) of the same molecule?
Answer: The GI50 was 0.00334 µM (active).

Question: And the GI50 (NCI-H460)?
Answer: The GI50 was 0.000125 µM (active).

Question: And the GI50 (NCI-H522)?
Answer: The GI50 was 0.000119 µM (active).

Question: What about the GI50 (NCI/ADR-RES) of the same molecule?
Answer: The GI50 was < 0.0001 µM (active).

Question: And the GI50 (OVCAR-3)?
Answer: Its GI50 is 0.000107 µM (active).

Question: And the GI50 (OVCAR-4)?
Answer: The GI50 was 0.00144 µM (active).

Question: What about the GI50 (RXF 393) of the same molecule?
Answer: The GI50 was < 0.0001 µM (active).

Question: And the GI50 (SK-MEL-28)?
Answer: Its GI50 is 11.8 µM (inactive).

Question: What about the GI50 (SN12C) of the same molecule?
Answer: The GI50 was 0.000244 µM (active).

Question: And the GI50 (SNB-75)?
Answer: The GI50 was 0.000215 µM (active).

Question: What about the GI50 (SW-620) of the same molecule?
Answer: Its GI50 is < 0.0001 µM (active).

Question: What about the GI50 (UACC-257) of the same molecule?
Answer: The GI50 was 0.00839 µM (active).

Question: What about the GI50 (UO-31) of the same molecule?
Answer: Its GI50 is 0.00411 µM (active).
